Reference: US20140094424A1, “MICROBICIDAL COMPOSITIONS AND METHODS OF PRODUCTION USE THEREOF” (priority 2011, published 2014)

Columns and labels:
[1] = tested on: creatinine biosensor (creatinine amidohydrolase, creatinine amidinohydrolase and sarcosine oxidase); test: Effect on enzymatic activity of a creatinine biosensor (rate of O2% decrease); assay type: biochemical; details: 40 mM propionate, FIG. 2
Protocol: In FIG. 1, the effects of various concentrations of gentamicin on the enzymatic activity of a creatinine biosensor (comprising the three enzymes creatinine amidohydrolase, creatinine amidinohydrolase and sarcosine oxidase) were determined. In FIG. 2, the effects of various concentrations of propionate on the enzymatic activity of a creatinine biosensor (comprising three enzymes) were determined.
In both instances, a decreasing rate of O2% is an indicator of enzyme activity; the faster the rate of O2% decrease, the higher enzymatic activity is.

[2] = Dissolution of antibiotic in Wash NEXT reagent; assay type: physicochemical; details: 1% in Wash NEXT base pool

SMILES	effect on enzymatic activity of the three enzymes in the creatinine biosensor [1]	dissolution in the Wash reagent [2]
CCC(=O)O [propionate]	did not substantially affect the enzymatic activity	–
CO[C@@H]1[C@@H](OC(N)=O)[C@@H](O)[C@H](Oc2ccc3c(O)c(NC(=O)c4ccc(O)c(CC=C(C)C)c4)c(=O)oc3c2C)OC1(C)C [novobiocin]	–	neither antibiotic completely dissolved in the Wash reagent
